Measurements as given in patent US9511074B2, “Methods of treating disorders associated with protein polymerization” (UNIVERSITY OF PITTSBURGH—OF THE COMMONWEALTH SYSTEM OF …, priority 2009, dated 2016).

What was measured:
[1] = system: BiP in the HTO/Z cell line; experiment: Steady state levels of BiP in the HTO/Z cell line (immunoblot); type: cell-based, human; details: FIG. 1D
From the text: Cell Lines The human epidermal HeLa cell line with doxycycline-regulated expression of ATZ (HTO/Z) has been described previously (1). HTO/M and HTO/Saar are HeLa cell lines with doxycycline-regulated expression of wild type AT and the AT Saar variant, respectively (1). A murine embryonic fibroblast cell line (MEF) with targeted disruption of Atg5 (2) was engineered for stable expression of ATZ using the previously described pRc/RSV-ATZ expression plasmid (3). A wild type MEF cell line was also engineered for stable expression of ATZ in the same way to serve as control. For experiments with CBZ, the inducible cell lines were cultured in the absence of doxycycline for at least 4 weeks for maximal expression of AT. The cells were then subcultured into separate monolayers in fresh complete growth medium and incubated for 48 hours in the absence or presence of CBZ or rapamycin (RAP). CBZ or RAP were added to the growth medium. The duration of incubation with CBZ was determined to be optimal at 48 hours based on experiments in which the duration was varied from 12 to 72 hours. Doses of CBZ were based on previous studies of its effects in cell lines (5,6). […]
For immunoblot analysis to detect AT, GAPDH or LC3, cells were lysed in 50 mM Tris-HCl, 150 mM NaCl, 1% NP-40, pH 8.0. Protein levels were quantified using the BCA protein assay (Pierce Biotechnology, Rockford, Ill.). […]

ATZ in the liver = experiment: Hepatic load of ATZ in vivo in PiZ×GFP-LC3 mice (immunoblot, globule histology); design: species or system mouse
From the text: Transgenic Mice PiZ mice that have been bred into the C57/BL6 background have been described previously (1). For the second and third series of experiments with CBZ we used PiZ mice that were re-derived onto the FVB/N background for a move into a new animal facility. The transgene that was used to generate the PiZ mouse is a genomic fragment of DNA that contains the coding regions of the ATZ gene together with introns and ˜2 kilobases of upstream and downstream flanking regions (10). […] In this perspective it is not an exact phenocopy of the classical form of AT deficiency. In particular it cannot be a model for the loss-of-function mechanisms associated with the classical form of AT deficiency. It is known to have abundant expression of ATZ in hepatocytes and other cell types that express ATZ in humans (11). In the liver there are abundant ATZ-containing intrahepatocytic globules and inflammation that is characteristic of what is seen in the human liver (11,12). […] Taken together, these observations indicate that the PiZ mouse is an appropriate model for the gain-of-toxic function mechanism that is responsible for liver damage in the classical form of AT deficiency. Indeed, the fact that these mice are endowed with endogenous AT function and therein normal levels of AT in the serum and body fluids make them an even more ‘pure’ model for liver damage by gain-of-toxic function. PiZ×GFP-LC3 mice, which generated green fluorescent autophagosomes, have been described previously (2). PiZ×IKKβ.hep were generated by mating of PiZ to IKKβ.hep, which has conditional hepatocyte-specific disruption of NF.B activation (M. Karin, 17). There is increased injury in the liver of these mice as evidenced by the hepatic hydroxyproline content, 153.3% of that in the PiZ mouse (FIG. 7).
Histology Sections of liver tissue were stained with hematoxylin and eosin, PAS, PAS after diastase treatment, TUNEL, PCNA, Ki67 and Sirius Red using standard techniques (18). Previous methods for staining with antibody to smooth muscle actin were used (19). Each was examined by the pathologist (GM) who was completely blinded to the experimental protocol. […] The number of inflammatory nodules, AT-containing globules and autophagosomes were each quantified blindly by counting cells in 6 microscopic fields of 10 different sections for each liver. The number of nuclei, as determined by Hoechst staining, was used to exclude the possibility that different numbers of cells were counted in liver sections from mice treated with CBZ as compared to controls. Hepatic hydroxyproline concentration was determined by a well-established protocol (20,21). […]
For immunoblot on liver, the liver was snap frozen in liquid nitrogen and stored at −80° C. […] Total protein concentration was measured by BCA assay (Pierce). […]

PiZ×IKKbDhep mouse = experiment: Hepatic hydroxyproline in PiZ×IKKbDhep mouse model; type: in vivo; details: FIG. 7
From the text: Transgenic Mice PiZ mice that have been bred into the C57/BL6 background have been described previously (1). For the second and third series of experiments with CBZ we used PiZ mice that were re-derived onto the FVB/N background for a move into a new animal facility. The transgene that was used to generate the PiZ mouse is a genomic fragment of DNA that contains the coding regions of the ATZ gene together with introns and ˜2 kilobases of upstream and downstream flanking regions (10). […] In this perspective it is not an exact phenocopy of the classical form of AT deficiency. In particular it cannot be a model for the loss-of-function mechanisms associated with the classical form of AT deficiency. […]
Histology Sections of liver tissue were stained with hematoxylin and eosin, PAS, PAS after diastase treatment, TUNEL, PCNA, Ki67 and Sirius Red using standard techniques (18). […] The number of inflammatory nodules, AT-containing globules and autophagosomes were each quantified blindly by counting cells in 6 microscopic fields of 10 different sections for each liver. The number of nuclei, as determined by Hoechst staining, was used to exclude the possibility that different numbers of cells were counted in liver sections from mice treated with CBZ as compared to controls. Hepatic hydroxyproline concentration was determined by a well-established protocol (20,21).

APP-PS1 mouse = experiment: Plaque load and Aβ ELISA in APP-PS1 mouse model of AD; type: in vivo; details: APP-PS1 mice, 200 mg/kg/day gavage, 5 doses per wk, 3 wks
From the text: The APP-PS1 mouse model of AD is associated with accelerated amyloid deposition with plaques resembling AD in humans starting to appear at 12 weeks of age (12) and progressive behavioral changes starting at 6 months of age (55, 56). Only a limited number of mice were available at the ideal age, 9 wks, at the time of the study, so the pilot study was very small. 9-12 wks of age was selected as the ideal age because it represents the age with the earliest consistent appearance of AP deposition in APP-PS1 mice. Mice were treated by orogastric gavage with CBZ 200 mg/kg/day, 5 doses per wk, for 3 wks; n=2 for CBZ and n=4 for vehicle (DMSO). Brain sections were stained with X-34, antibodies to Aβ1-40 and Aβ1-42 to determine plaque load using techniques as described previously (57).

[2] = PiZ×GFP-LC3 mice, 250 mg kg-1 day-1 for 2 weeks by gavage

NC(=O)N1c2ccccc2C=Cc2ccccc21 [CBZ, 5H-dibenz [b,f]azepine-5-carboxamide]
BiP levels [1]: did not affect
intrahepatocytic ATZ-containing globules (ATZ in the liver; [2]): marked decrease
total, insoluble, and soluble ATZ in the liver (ATZ in the liver; [2]): marked decrease
decrease in globule-containing hepatocytes, factor (ATZ in the liver; quantitative morphometry, 250 mg kg-1 day-1 for 2 weeks, P<0.001): 3.36
hepatic hydroxyproline concentration (PiZ×IKKbDhep mouse): decrease
soluble and insoluble Aβ1-40 and Aβ1-42 by ELISA (APP-PS1 mouse): trend toward lower values
plaque load (X-34, anti-Aβ1-40, anti-Aβ1-42 staining) (APP-PS1 mouse; n=2): marked reduction
